Patent US5830885A, “Antiproliferative vitamin D3 hybrids” (The Johns Hopkins University, priority 1996, dated 1998)
“Also recorded” adds a separate entry of the source.

Experiments:
[1] = test system: U 937 cancer cells; test: Viability of U 937 cancer cells (Table 5); type: cell-based; settings: Homo sapiens, at 10^-7 M, read-out: Viability
[2] = test system: U 937 cancer cells; test: Induction of cell differentiation in U 937 cancer cells (Table 5); type: cell-based, human
[3] = test system: cell proliferation; test: Anti-proliferative activity (summary statements); type: cell-based; settings: compared with calcitriol or in general words
[4] = test system: calcium channels; test: Calcium channel opening assay; type: cell-based
[5] = test system: keratinocyte; test: Dose-response effects on keratinocyte proliferation (FIGS. 3, 4, 9, 10); type: cell-based; settings: cell numbers at 0 and 96 hours
Method: N0 represents the number of cells at zero hours and N1 represents the number of cells at 96 hours.

[6] = test system: U 937 cancer cells; test: Inhibition of cell proliferation in U 937 cancer cells (Table 5); type: cell-based, human; settings: for IC50: Homo sapiens, U 937 cells; for inhibiting cell proliferation (in words): U 937, YB vs 1,25(OH)2 D3, YA up to 10^-7 M
[7] = Solubility in organic solvents; type: physicochemical; settings: methylene chloride, chloroform, methanol; for YA/YB also EtOAc, acetone
[8] = test system: MDA 468 cells; test: Thymidine incorporation by MDA 468 human breast cancer cells; type: cell-based; settings: FIGS. 6A and 6B
Text: (§1) FIGS. 6A and 6B show a comparison of the effects of 1,25(OH)2 D3 (filled squares), YA (filled circles) and YB (filled triangles) on thymidine incorporation by human breast cancer cell lines MDA 468 and SKBr 3.

[9] = test system: cell differentiation; test: Induction of differentiation (ratings of Table 2); type: cell-based; settings: for differentiation inducing activity: compared with calcitriol
[10] = molecular target: T1, calf thymus VDR (Bos taurus, UniProt Q28037); test: VDR binding assay, displacement of [^3 H]-1,25(OH)2 D3 from VDR; settings: for Amount Bound (amount that results in 50% displacement of [^3 H]-1,25(OH)2 D3 from VDR): Table 3, calf thymus VDR
T1 construct: from the calf thymus VDR; from tissue; host or cells: calf thymus
T1 sequence (Q28037 1-426): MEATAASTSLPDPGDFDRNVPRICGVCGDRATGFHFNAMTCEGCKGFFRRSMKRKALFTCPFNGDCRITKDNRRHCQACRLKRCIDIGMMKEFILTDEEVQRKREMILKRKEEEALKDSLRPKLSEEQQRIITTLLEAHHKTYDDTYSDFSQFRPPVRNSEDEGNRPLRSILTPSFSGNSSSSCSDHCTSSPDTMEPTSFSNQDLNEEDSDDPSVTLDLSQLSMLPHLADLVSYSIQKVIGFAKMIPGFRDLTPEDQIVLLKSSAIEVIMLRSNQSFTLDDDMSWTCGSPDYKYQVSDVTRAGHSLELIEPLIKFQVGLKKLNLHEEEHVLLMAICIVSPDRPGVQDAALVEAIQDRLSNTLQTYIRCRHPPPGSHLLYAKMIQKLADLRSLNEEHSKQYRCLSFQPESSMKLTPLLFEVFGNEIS
Method: The VDR binding assay was performed according to the procedure of Reinhardt, T. A., Horst, R. L., Orf, J. W., Hollis, B. W., J. Clin. Endocrin. Metab., 58: 91-98 (1984), the entire contents of which are hereby incorporated herein by reference.

[11] = test system: RWLeu-4 human CML cell line; test: Proliferation of RWLeu-4 human chronic myelogenous leukemic cells; type: cell-based; settings: even at 50 nM; FIG. 5
Text: MCW-II5-y-A is compound YA and MCW-II5-y-B is compound YB.

[12] = test system: human breast cancer cell lines MDA 468 and SKBr 3; test: Thymidine incorporation by human breast cancer cell lines; type: cell-based; settings: human breast cancer cells; FIGS. 6A and 6B
Text: as §1

[13] = test system: cell proliferation; test: Inhibition of proliferation (ratings of Table 2); type: cell-based; settings: Table 2 rating
[14] = test system: Human lymphoma cells U 937; settings: relative to calcitriol = 1; cited from earlier work
[15] = test system: Lewis rats; settings: relative to calcitriol = 1; cited from earlier work
[16] = test system: Human lymphoma cells U 937; settings: relative to calcitriol = 1; cited from earlier work; remark: listed apart in the source
[17] = test system: HL-60 cells; settings: relative to 1,25D3; cited from earlier work

IC50 [6] [nM] | solubility in organic solvents [7] | Amount Bound (amount that results in 50% displacement of [^3 H]-1,25(OH)2 D3 from VDR) [10] [µg] | SMILES | viability at 0.1 µM [1] [%] | Average peak shift compared to control ([4]; 0.05 nM) [mV] | Average peak shift compared to control ([4]; 0.5 nM) [mV] | Average peak shift compared to control ([4]; 5 nM) [mV] | Average peak shift compared to control ([4]; 50 nM) [mV] | effect on keratinocyte proliferation [5] | inhibiting cell proliferation (in words) [6] | differentiation inducing activity [9] | also measured
> 100 | sparingly soluble | 2.2 | C=C1/C(=C\C=C2/CCC[C@]3(C)[C@@H]([C@@H](C)OCCCC(O)(CC)CC)CC[C@@H]23)C[C@@H](O)C[C@@H]1CO [YA, 22-oxa-1-(hydroxymethyl)-26-(hydroxydiethyl) vitamin D3] | 99 | 1.0 ± 0.1 | 10.8 ± 1.5 | 16.1 ± 4.1 | 18.6 ± 3.3 | not effective for inhibition of proliferation | ineffective | relatively ineffective in inducing differentiation | inducing cell differentiation (in words) ([2]; at 10^-7 M): inactive; anti-proliferative activity [3]: relatively ineffective in inducing differentiation or inhibiting proliferation; inhibition of growth (suppression of thymidine incorporation) [8]: appears to have no effect; VDR binding (in words) [10]: even weaker binding for VDR than YB; also recorded: low VDR binding
60 | sparingly soluble | 0.0295 | C=C1/C(=C\C=C2/CCC[C@]3(C)[C@@H]([C@@H](C)OCCCC(O)(CC)CC)CC[C@@H]23)C[C@H](O)C[C@H]1CO [YB, 22-oxa-1-(hydroxymethyl)-26-(hydroxydiethyl) vitamin D3] | 99 | 3.6 ± 2.2 | 13.2 ± 2.8 | 16.6 ± 2.8 | 18.4 ± 2.1 | comparable to that of calcitriol | about one third as active | comparable to that of calcitriol | inducing cell differentiation (in words) ([2]; at a concentration of 10^-8 M): effective in inducing cell differentiation; anti-proliferative effect on RWLeu-4 cells [11]: comparable to or slightly greater than that of calcitriol; inhibition of growth (suppression of thymidine incorporation) [12]: very comparable to calcitriol; Induction of Differentiation (rating) ([9]; Table 2 rating): 1; times less strongly bound to VDR than 1,25(OH)2 D3 ([10]; relative to 1,25(OH)2 D3): about 1300 times; Inhibition of Proliferation (rating) [13]: 1
 |  |  | C=C1/C(=C\C=C2/CCC[C@]3(C)[C@@H]([C@@H](C)OCCCC(O)(CC)CC)CC[C@@H]23)C[C@@H](O)C[C@@H]1O [KH-1060] |  |  |  |  |  |  |  |  | Relative Potency, Induction of Differentiation [14]: 100,000; Relative Potency, Calcemic Effects [15]: 1.3; Relative Potency, Inhibition of Proliferation [16]: 31,000; times as effective as 1,25D3 in the induction of leukemic cell (HL-60) differentiation [17]: 133 times
